Starred links: 1 amine or outer side, 2 acyl side, 3 side chain; linkers in the order of their positions; H or OH if unused. Non-standard residues stand in square brackets, D forms with d. Residues, ends and D or L forms follow the SMILES beside them. Groups on a side chain read outwards from the residue. *: point of attachment. C20 diacid = O=C(O)CCCCCCCCCCCCCCCCCCC(=O)*; C18 diacid = O=C(O)CCCCCCCCCCCCCCCCC(=O)*; d(βAsp) = O=C(O)[C@@H](CC(=O)[*:2])N[*:1]; 2Nal = N[C@@H](Cc1ccc2ccccc2c1)C(=O)O; βAsp = O=C(O)[C@H](CC(=O)[*:2])N[*:1]; AEEA = NCCOCCOCC(=O)O; Aib = CC(C)(N)C(=O)O; Inp = O=C(O)C1CCNCC1
Molecular target: human serum albumin (HSA) (Homo sapiens, UniProt P02768)
Test: Albumin binding affinity, competition scintillation proximity assay
Procedure: Streptavidin-SPA beads (GE Healthcare RPNQ0009) were incubated with biotinylated HSA for 5 hours. The beads were washed with buffer to remove unbound HSA. […] After 20 hours of gentle rocking at room temperature the plates were centrifuged and counted on a TopCounter.

Sequence of human serum albumin (HSA) (P02768 25-609): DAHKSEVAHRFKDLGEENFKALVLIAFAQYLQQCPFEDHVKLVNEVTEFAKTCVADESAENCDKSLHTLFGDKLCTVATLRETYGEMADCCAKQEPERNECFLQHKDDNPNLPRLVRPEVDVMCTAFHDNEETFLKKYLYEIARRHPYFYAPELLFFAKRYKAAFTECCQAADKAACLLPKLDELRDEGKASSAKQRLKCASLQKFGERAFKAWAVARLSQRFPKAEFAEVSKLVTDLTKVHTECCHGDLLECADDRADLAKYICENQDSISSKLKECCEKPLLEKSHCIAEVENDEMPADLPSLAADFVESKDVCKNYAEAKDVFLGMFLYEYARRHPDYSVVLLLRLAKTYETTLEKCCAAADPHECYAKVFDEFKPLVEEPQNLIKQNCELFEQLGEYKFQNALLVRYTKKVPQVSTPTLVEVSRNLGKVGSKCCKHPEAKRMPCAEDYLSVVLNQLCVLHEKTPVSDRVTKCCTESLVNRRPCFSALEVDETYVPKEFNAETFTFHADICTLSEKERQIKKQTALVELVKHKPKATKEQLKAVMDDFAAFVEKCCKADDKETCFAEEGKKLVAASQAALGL

Row | EC50 | SMILES
1 | 150 to 300 nM | CC[C@H](C)[C@H](NC(=O)[C@H](Cc1ccccc1)NC(=O)[C@H](CCC(=O)O)NC(=O)[C@H](CCCNC(=N)N)NC(=O)[C@H](C)NC(=O)[C@H](C)NC(=O)[C@H](CCC(N)=O)NC(=O)[C@H](CCC(=O)O)NC(=O)[C@H](CCC(=O)O)NC(=O)[C@H](CC(C)C)NC(=O)[C@H](Cc1ccc(O)cc1)NC(=O)[C@H](CO)NC(=O)[C@H](CO)NC(=O)[C@@H](NC(=O)[C@H](CC(=O)O)NC(=O)[C@H](CO)NC(=O)[C@@H](NC(=O)[C@H](Cc1ccccc1)NC(=O)[C@@H](NC(=O)CNC(=O)[C@H](CCC(=O)O)NC(=O)C(C)(C)NC(=O)[C@@H](N)Cc1c[nH]cn1)[C@@H](C)O)[C@@H](C)O)C(C)C)C(=O)N[C@@H](C)C(=O)N[C@@H](CCCCNC(=O)COCCOCCNC(=O)COCCOCCNC(=O)C[C@H](NC(=O)C1CCN(C(=O)CCCCCCCCCCCCCCCCCCC(=O)O)CC1)C(=O)O)C(=O)N[C@@H](CC(C)C)C(=O)N[C@H](C(=O)N[C@@H](CCCNC(=N)N)C(=O)NCC(=O)N[C@@H](CCCNC(=N)N)C(=O)NCC(=O)O)C(C)C [Example 15, N-epsilon31-(2-{2-[2-(2-{2-[2-((S)-3-Carboxy-3-{[1-(19-carboxy-nonadecanoyl)piperidine-4-carbonyl]amino}propionylamino)ethoxy]ethoxy}acetylamino)ethoxy]ethoxy}acetyl)[Aib8,Glu22,Arg26,Lys31,Arg34]GLP-1-(7-37)] (H-H[Aib]EGTFTSDVSSYLEEQAAREFIAK([AEEA-AEEA-βAsp-Inp-C20 diacid])LVRGRG-OH)
2 | 800 to 2000 nM | CC[C@H](C)[C@H](NC(=O)[C@H](Cc1ccc2ccccc2c1)NC(=O)[C@H](CCC(=O)O)NC(=O)[C@H](CCCNC(=N)N)NC(=O)[C@H](C)NC(=O)[C@H](C)NC(=O)[C@H](CCC(N)=O)NC(=O)CNC(=O)[C@H](CCC(=O)O)NC(=O)[C@H](CCCCNC(=O)COCCOCCNC(=O)COCCOCCNC(=O)C[C@@H](NC(=O)C1CCN(C(=O)CCCCCCCCCCCCCCCCC(=O)O)CC1)C(=O)O)NC(=O)[C@H](Cc1ccc(O)cc1)NC(=O)[C@H](CO)NC(=O)[C@H](CO)NC(=O)[C@@H](NC(=O)[C@H](CC(=O)O)NC(=O)[C@H](CO)NC(=O)[C@@H](NC(=O)[C@H](Cc1ccccc1)NC(=O)[C@@H](NC(=O)CNC(=O)[C@H](CCC(=O)O)NC(=O)C(C)(C)NC(=O)[C@@H](N)Cc1c[nH]cn1)[C@@H](C)O)[C@@H](C)O)C(C)C)C(=O)N[C@@H](CCC(=O)O)C(=O)N[C@@H](Cc1c[nH]c2ccccc12)C(=O)N[C@@H](CC(C)C)C(=O)N[C@H](C(=O)N[C@@H](CCCCN)C(=O)NCC(=O)N[C@@H](CCCNC(=N)N)C(=O)NCC(N)=O)C(C)C [Example 11, N-ε^20({2-[2-(2-{2-[2-((R)-3-carboxy-3-{[1-(17-carboxyheptadecanoyl)piperidine-4-carbonyl]amino}propionylamino)ethoxy]ethoxy}acetylamino)ethoxy]ethoxy}acetyl) [Aib^8,Lys^20,Arg^26,2-Naphtylalanine^28, Glu^30]GLP-1 (7-37)amide] (H-H[Aib]EGTFTSDVSSYK([AEEA-AEEA-d(βAsp)-Inp-C18 diacid])EGQAARE[2Nal]IEWLVKGRG-NH2; N-terminus assumed)

Reference: patent US9067977B2, “Peptides derivatized with A-B-C-D- and their therapeutical use” (Novo Nordisk A/S, priority 2007, dated 2015)
